Data published in patent US4981788A, “Novel acetylpolyamine amidohydrolase” (Kyowa Hakko Kogyo Co., Ltd., priority 1987, dated 1991).

Tests used:
[1] = system: E3: Enzyme derived from Micrococcus luteus (acetylpolyamine amidohydrolase); conditions: pH 7.0, cited from earlier work; for Relative activity, E3: activity against acetylputrescine defined as 100
[2] = target: T1, acetylpolyamine amidohydrolase (the present enzyme, product purified to homogeneity) (Mycoplana ramosa, UniProt Q48935); assay: Enzyme activity on acetylpolyamine substrates, product purified to homogeneity (Method 2 / Method 3); assay type: biochemical, Mycoplana bullata; conditions: for Optimum pH: 37° C., phosphate and borate buffers, per substrate; for Vmax, Mycoplana bullata enzyme: pH 9.0; for Relative activity, Mycoplana bullata enzyme: phosphate buffer pH 9.0, substrate 0.833 mM, acetylputrescine = 100
T1 construct: novel acetylpolyamine amidohydrolase of the present invention accumulated within the grown cells; made in house; host or cells: Mycoplana (natural producer)
T1 sequence (Q48935 1-341): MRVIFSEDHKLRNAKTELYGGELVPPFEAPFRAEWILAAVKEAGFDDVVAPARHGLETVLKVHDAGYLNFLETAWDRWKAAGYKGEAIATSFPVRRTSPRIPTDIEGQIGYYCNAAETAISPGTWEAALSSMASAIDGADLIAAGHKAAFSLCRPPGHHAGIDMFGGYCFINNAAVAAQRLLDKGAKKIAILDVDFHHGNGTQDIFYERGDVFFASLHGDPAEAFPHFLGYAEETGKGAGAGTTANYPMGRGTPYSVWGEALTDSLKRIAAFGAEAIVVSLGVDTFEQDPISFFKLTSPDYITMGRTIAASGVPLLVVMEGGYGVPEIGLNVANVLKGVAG
Source text: [Method 2] (Assay when acetylputrescine, acetylcadaverine, N^1 -acetylspermidine and N^8 -acetylspermidine are used as substrate:)
The acetylpolyamine can be hydrolyzed by the acetylpolyamine amidohydrolase, as described in [Method 1], and the corresponding free polyamine thus formed is then oxidized by putrescine oxidase. Putrescine oxidase derived from Micrococcus rubens is known to have an activity upon putrescine, cadaverine and spermidine [Adachi, et al., Agric. Biol. Chem, 30, 1202 (1966)]. […] The actual analytical procedure is as described below.
The above reagents, (b) through (h), were put in a cuvette (d: 1.0 cm) and the mixture was preincubated at 37° C. for 2 minutes. The substrate solution (a) was then added, and the resulting mixture was incubated at 37° C. Absorbance at 500 nm was measured over a period of 3 to 5 minutes, and the change in absorbance per minute (ΔODsample) was determined from the linear portion of the plotted curve. For control, the same procedure as above was carried out, using distilled water as reference.
One unit of acetylpolyamine amidohydrolase is defined as its amount necessary to hydrolyze 1 μmole of acetylputrescine at 37° C. for one minute (or the amount necessary to form 0.5 μmole of quinoneimine pigment formed in the method for measuring the enzyme activity described above).
[Method 3] (Assay when acetylspermine is used as substrate:)
Acetylspermine is hydrolyzed by the action of acetylpolyamine amidohydrolase into free form of spermine. The free form of spermine can be oxidized by a polyamine oxidase derived from Aspergillus terreus to produce hydrogen peroxide. Two molar equivalents of hydrogen peroxide is formed from one molar equivalent of spermine. Thus, the enzyme activity can be measured by quantitative determination of the hydrogen peroxide according to the method described above. However, since the above polyamine oxidase also acts upon acetylspermine, it is impossible to exactly measure the activity of acetylpolyamine amidohydrolase by the standard assay. […] The actual procedure is described below.
Reagents (b) through (d) given in item (1) were put in a test tube and the mixture was preincubated at 37° C. for 2 minutes. The substrate solution (a) was then added, the resulting mixture was incubated at 37° C. for 10 minutes, and the reaction was stopped by addition of the termination (e). A sample solution (100 μl) was taken from the reaction mixture and subjected to HPLC as described above to separate free form of spermine from acetylspermine. Generally, acetylspermine is eluted at a position of 38 minutes after the start of elution and free form of spermine at a position of 41 minutes after the start of elution. A sample solution (200 μl), taken from the eluate containing free form of spermine, was mixed in a cuvette with reagents (a) through (e) given in item (2) above, the mixture was incubated at 37° C. for 10 minutes, and the absorbance at 755 nm was measured. For control, the same procedure as above was carried out using 200 μl of Elunt A in place of the sample solution, as reference.
The concentration of free form of spermine in the reaction mixture can be determined from a calibration curve previously prepared on the basis of aqueous soluitons of free form of spermine with different concentrations. If the concentration of free form of spermine contained in 150 μl of the reaction mixture is taken as P (mM), then the potency (A) for 1 ml of the enzyme solution can be expressed by the following equation: […]
The activities upon acetylputrescine, acetylcadaverine, N^1 -acetylspermidine and N^8 -acetylspermidine were measured by [Method 2] in a phosphate buffer (pH 9.0) at a substrate concentration of 0.833 mM, and the activity upon acetyl-spermine was measured by [Method 3] under the same conditions. […] Km values, determined from the Lineweaver-Burk plot, are also listed in the same table. […]

[3] = system: E2: Enzyme derived from Arthrobacter sp. (acetylpolyamine amidohydrolase); conditions: pH 7.0, cited from earlier work; for Relative activity, E2: activity against acetylputrescine defined as 100
[4] = target: T2, acetylpolyamine amidohydrolase (the present enzyme, partially purified product) (Mycoplana ramosa, UniProt Q48935); assay: Enzyme activity on acetylpolyamine substrates, partially purified product (substrate specificity, optimum pH/temperature, Km); assay type: biochemical, Mycoplana bullata; conditions: for Optimum pH: pH 6 to 10, bis-Tris propane buffer, per substrate; for Relative activity, the present enzyme: pH 7.0, activity against acetylputrescine defined as 100
T2 construct: novel acetylpolyamine amidohydrolase of the present invention accumulated within the grown cells; made in house; host or cells: Mycoplana (natural producer; cells grown in culture)
T2 sequence (Q48935 1-341): T1 sequence (Q48935 1-341)
Procedure: Activity of the present enzyme (partially purified products) is measured according to the following procedure. That is, 0.1 ml of an enzyme solution is added to a reagent solution consisting of 1.5 ml of 0.1 M phosphate buffer (pH 7.0), 0.05 ml of 50 mM acetylpolyamine, 0.4 U of putrescine oxidase (when acetylputrescine, acetylcadaverine or acetylspermidine is used as substrate) or polyamine oxidase (when acetylspermidine or acetylspermine is used as substrate), 0.5 ml of 2.4 mM 4-aminoantipyrine, 0.5 ml of 42 mM phenol and 20 U of peroxidase. The mixture is incubated at 37° C., and the absorbance of quinoneimine pigment formed at 500 nm is measured.
In terms of the enzyme activity, the amount of enzyme that can hydrolyze 1 μmole of a substrate in one minute is defined as one unit (1 U).
The relative activities of acetylpolyamine amidohydrolases against various type of acetylpolyamine, defining the activities against acetylputrescine as 100 under a condition of pH 7.0, are as shown in Table 1 below.
Enzyme activity was measured at different pH levels ranging from 6 to 10 by using bis-Tris propane buffer solutions. The optimum pH was 9 for acetylputrescine and acetylcadaverine, and 8 for N^1 -acetylspermidine, N^8 -acetylspermidine and acetylspermine, as shown in FIG. 1.
The optimum working temperature for the present enzyme was about 50° C., when the relative activity was determined, using acetylputrescine as substrate, as shown in FIG. 4. The optimum temperatures for the other acetylpolyamine amidohydrolases were 30° to 40° C. This clearly distinguishes the present enzyme from the known enzymes.
Km values of the present enzyme and the other known enzymes for various types of acetylpolyamine at pH 7.0 were determined from the Line weaver-Burk plot [refer to J. Am. Chem. Soc., 56, 658 (1934)].

[5] = system: E1: Enzyme derived from Streptomyces avellaneus (acetylpolyamine amidohydrolase); conditions: cited from earlier work

Row | Compound | Relative activity, E3 [1] | Substrate concentration at which substrate inhibition was observed [2] | Optimum pH [2] | Vmax, Mycoplana bullata enzyme [2] | Km ([2]; pH 9.0, Lineweaver-Burk plot, read-out: Km, Mycoplana bullata enzyme) | Relative activity, Mycoplana bullata enzyme [2] | Relative activity, E2 [3] | Optimum pH [4] | Km ([4]; pH 7.0, Lineweaver-Burk plot) | Relative activity, the present enzyme [4] | Relative activity, E1 ([5]; pH 7.0, activity against acetylputrescine defined as 100) | Relative activity, St. avellaneus enzyme ([5]; reported reference data in Table 5, acetylputrescine = 100) | Km [1] | Km [3]
1 | CC(=O)NCCCNCCCCNCCCN [Acetylspermine] | 2.1% | > 1.6 mM | 10 | 7.7 u/mg | 290 µM | 37% | 3% | 8 | 160 µM | 24% | 0.4% | 0.4% | – | –
2 | CC(=O)NCCCNCCCCN [N^1 -Acetylspermidine] | 3.5% | ≥ 1 mM | 9 | 20.5 u/mg | – | 61% | – | 8 | – | 108% | – | – | – | –
3 | CC(=O)NCCCCNCCCN [N^8 -Acetylspermidine] | 85.1% | ≥ 1 mM | 9 | 19.8 u/mg | – | 60% | – | 8 | – | 51% | – | – | 380 µM | –
4 | CC(=O)NCCCCCN [Acetylcadaverine] | 12.5% | ≥ 1 mM | – | 18.8 u/mg | – | 72% | 45% | 9 | – | 71% | – | – | – | 1600 µM
